“Also recorded” adds a separate entry of the source.
Experiments:
C57B1/6 male mice = experiment: Forced swim test (FST); assay type: in vivo, mouse; details: vs vehicle
Procedure: C57B1/6 male mice were ordered from Jackson Laboratories at 8 weeks-old and were group housed (4-5 mice/cage) under normal housing conditions (12 h light ON cycle starting at 7 am/water and food ad libitum) for one week. During this week, animals were handled in order to habituate them to the experimenter and to reduce their anxiety-like response during behavioral testing.
All drugs were diluted in a vehicle solution containing 85% H2O, 14% propylene glycol (Sigma Aldrich) and 1% Tween 80 (Sigma Aldrich). Working solutions were prepared at a concentration of 20 mg/mL and administered i.p. adjusted to the body weight of each animal. Doses used were either 1, 5 or 10 mg/kg. For all FST experiments, animals were injected i.p. with vehicle or αPAM.
Mice were tested in the forced swim test (FST) (measure of despair-like behavior used for the assessment of antidepressant efficacy). Animals were sub-chronically injected three times (24, 20 and 1 hour before testing) as per standard methods in the field for testing potential antidepressant compounds.
One hour after the last injection, mice were placed in an inescapable transparent tank filled with water (25 cm, 25-26° C.), where they are unable to touch the bottom and unable to jump out of the tank. Animal were recorded for a period of 6 minutes and a manual count of the immobile time in the tank was measured for the 2-6 minutes period by an experimenter blinded to the mouse treatment history. Immobility is defined as the minimum amount of movement to stay afloat. Compounds that reduced immobility in the FST are considered to have potential antidepressant actions.

18 months-old mice = experiment: Y-maze alternation task, old mice; assay type: in vivo, mouse; details: 5 mg/kg i.p. 30 min before testing
Procedure: C57/B16 male mice males were ordered from Jackson Laboratories at 10 months-old and were kept in normal housing conditions (12 h light ON cycle starting at 7 am/water and food ad libitum) until they reached the age of 18 months. A younger cohort of 8 week old animals was used as controls for the experiment. Before testing animals were handled to reduce the anxiety-like response toward the experimenter. Normal aging induced-working memory deficits were assessed using the Y-maze test as described below.
Mice were first habituated to the Y-maze apparatus and distal cues during 2 consecutive days over a 10 min free exploration session (one session per day). The next day, animals performed a training session consisting in seven successive trials separated by a 30 s inter-trial interval (ITI); during this training session, mice were familiarized with the experimental procedure (opening and closing of the doors and confinement into the goal arms). […] Then, the door was opened and the mouse was allowed to enter freely one of the two goal arms; the chosen arm was closed and the choice was recorded. […]
The same general procedure used in the training session was implemented 24 h later, except that the ITI was lengthened to 90 s. […] The mean alternation rate was calculated and was expressed in percentage (number of alternation done by the animal/total number of alternation possible×100)±SEM. […]

rats = experiment: Social novelty discrimination (SND); assay type: in vivo, rat; details: 10 mg/kg
Procedure: The SND test compares the social investigation times of an adult rat with a familiar and a novel juvenile rat. Testing consisted of two consecutive juvenile presentations periods to an adult subject: period 1 (P1) and period 2 (P2). At the beginning of P1, one juvenile was placed into the adult home cage and the time spent by the adult investigating the juvenile (anogenital sniffing, licking, close pursuing and pawing) was recorded manually for 5 min. During P2, the same juvenile and a second, novel juvenile were placed in the cage together with the adult, and the times spent by the adult investigating each juvenile were measured independently for 3 min. A different pair of juvenile rats was presented to each adult tested. Manual scoring was conducted in a blinded manner. SND was deliberately impaired in control rats by the parametric manipulation applied, as there was 30 min delay between P1 and P2, and their SND was expected to be low. The influence of MP-III-022 (1, 2.5 or 10 mg/kg) on the thus induced impairment in SND was examined. There were five groups of rats which received one of the following treatments 20 min before P1: solvent, 1.5 mg/kg diazepam and 1, 2.5 and 10 mg/kg MP-III-022. The amount of time investigating familiar (Tf) and novel (Tn) juvenile during P2 was manually scored, and discrimination indexes (Tn−Tf/Tn+Tf) was calculated. Total exploration time during P1 and P2 was also manually recorded.

[1] = Wistar rats, Stamenic et al. 2016, cited from earlier work
[2] = 5 mg/kg i.p. 24, 20, 1 hour before testing
[3] = 10 mg/kg i.p. 24, 20, 1 hour before testing

## C#Cc1ccc2c(c1)C(c1ccccc1F)=N[C@@H](C)c1c(C(=O)N(C)C)ncn1-2 [GL-I-54, (S)-8-ethynyl-6-(2-fluorophenyl)-N,N,4-trimethyl-4H-benzo[f]imidazo[1,5-a][1,4]diazepine-3-carboxamide]
C57B1/6 male mice; [2]
  time spent immobile in the FST: significant decrease in immobility time; also recorded: significant antidepressant-like action

## C#Cc1ccc2c(c1)C(c1ccccc1F)=N[C@H](C)c1c(C(=O)N(C)C)ncn1-2 [GL-II-73, (R)-8-ethynyl-6-(2-fluorophenyl)-N,N,4-trimethyl-4H-benzo[f]imidazo[1,5-a][1,4]diazepine-3-carboxam]
18 months-old mice
  effect on age-induced working memory impairment (percent alternation rate, Y-maze): significant reversal of age-induced impairment in working memory; also recorded: significant pro-cognitive effect
C57B1/6 male mice; [3]
  time spent immobile in the FST: significantly decreased the immobility; also recorded: significant antidepressant-like efficacy

## C#Cc1ccc2c(c1)C(c1ccccc1F)=N[C@H](C)c1c(C(=O)NCC)ncn1-2 [GL-II-74, (R)—N-ethyl-8-ethynyl-6-(2-fluorophenyl)-4-methyl-4H-benzo[f]imidazo[1,5-a][1,4]diazepine-3-carboxamide]
C57B1/6 male mice; [2]
  time spent immobile in the FST: significantly decreased the immobility; also recorded: significant antidepressant-like efficacy
C57B1/6 male mice; [3]
  time spent immobile in the FST: significantly decreased the immobility; also recorded: significant antidepressant-like efficacy

## C#Cc1ccc2c(c1)C(c1ccccc1F)=N[C@H](C)c1c(C(=O)NC3CC3)ncn1-2 [GL-II-75, (R)—N-cyclopropyl-8-ethynyl-6-(2-fluorophenyl)-4-methyl-4H-benzo[f]imidazo[1,5-a][1,4]diazepine-3-carboxamide]
18 months-old mice
  effect on age-induced working memory impairment (percent alternation rate, Y-maze): significant reversal of age-induced impairment in working memory; also recorded: significant pro-cognitive effect
C57B1/6 male mice; [2]
  time spent immobile in the FST: significantly decreased the immobility; also recorded: significant antidepressant-like efficacy
C57B1/6 male mice; [3]
  time spent immobile in the FST: significantly decreased the immobility; also recorded: significant antidepressant-like efficacy

## C#Cc1ccc2c(c1)C(c1ccccc1F)=N[C@H](C)c1c(C(=O)NC)ncn1-2 [MP-III-022]
rats; 20 min before P1, one-sample t-test vs zero
  discrimination index (social novelty discrimination): significant differences from zero
rats; 20 min before P1, paired t-test
  time exploring the familiar and the novel juvenile rat during P2: spent significantly more time in exploring the new rat
C57B1/6 male mice; [3]
  time spent immobile in the FST: significant decrease in immobility time; also recorded: significant antidepressant-like action
[1]; i.p. single dose
  terminal elimination half-life t1/2, brain: 70 min
  terminal elimination half-life t1/2, plasma: 35 min
[1]; single i.p. dose
  systemic and brain exposure: excellent systemic and brain exposure

Reference: patent US10906909B2, “Treatment of cognitive and mood symptoms in neurodegenerative and neuropsychiatric disorders with ALPHA5-containing GABAA receptor agonists” (UWM Research Foundation, Inc., priority 2016, dated 2021)
